Data from US8710017B2, “Human and mouse targeting peptides identified by phage display” (priority 2000, dated 2014).
Entries after “also recorded” stand apart in the source; their conditions may differ. Ends that are not written are not given here.

Assays:
placenta [1] = experiment: Effect of placental targeting peptide conjugates on fetal development in pregnant mice; type: in vivo, mouse; details: for effect on pregnancy: FITC conjugated, lower dosages (450 μg total); for effect on fetal development: protein and phage conjugated, higher dosages (800 to 1000 μg protein or 4.5×10^10 phage)
Text: The CARAC peptide (SEQ ID NO:46), an adipose targeting peptide (FE, TREVHRS, SEQ ID NO:47) or fd-tet phage were used as non-placental targeting controls.

APA (SK-RC-49/APA cells) [2] = target: T1, APA (SK-RC-49/APA cells) (Homo sapiens, UniProt Q07075); experiment: Cell panning of CX3CX3CX3C phage library on SK-RC-49/APA cells (insert frequency); type: cell-based; details: share of 18 randomly selected phage inserts, round 2
T1 construct: The renal carcinoma cell line SK-RC-49 was transfected with an expression vector encoding full-length APA cDNA; expressed in transfected cells; host or cells: SK-RC-49 renal carcinoma cells, stably transfected (G418)
T1 sequence (Q07075 whole entry): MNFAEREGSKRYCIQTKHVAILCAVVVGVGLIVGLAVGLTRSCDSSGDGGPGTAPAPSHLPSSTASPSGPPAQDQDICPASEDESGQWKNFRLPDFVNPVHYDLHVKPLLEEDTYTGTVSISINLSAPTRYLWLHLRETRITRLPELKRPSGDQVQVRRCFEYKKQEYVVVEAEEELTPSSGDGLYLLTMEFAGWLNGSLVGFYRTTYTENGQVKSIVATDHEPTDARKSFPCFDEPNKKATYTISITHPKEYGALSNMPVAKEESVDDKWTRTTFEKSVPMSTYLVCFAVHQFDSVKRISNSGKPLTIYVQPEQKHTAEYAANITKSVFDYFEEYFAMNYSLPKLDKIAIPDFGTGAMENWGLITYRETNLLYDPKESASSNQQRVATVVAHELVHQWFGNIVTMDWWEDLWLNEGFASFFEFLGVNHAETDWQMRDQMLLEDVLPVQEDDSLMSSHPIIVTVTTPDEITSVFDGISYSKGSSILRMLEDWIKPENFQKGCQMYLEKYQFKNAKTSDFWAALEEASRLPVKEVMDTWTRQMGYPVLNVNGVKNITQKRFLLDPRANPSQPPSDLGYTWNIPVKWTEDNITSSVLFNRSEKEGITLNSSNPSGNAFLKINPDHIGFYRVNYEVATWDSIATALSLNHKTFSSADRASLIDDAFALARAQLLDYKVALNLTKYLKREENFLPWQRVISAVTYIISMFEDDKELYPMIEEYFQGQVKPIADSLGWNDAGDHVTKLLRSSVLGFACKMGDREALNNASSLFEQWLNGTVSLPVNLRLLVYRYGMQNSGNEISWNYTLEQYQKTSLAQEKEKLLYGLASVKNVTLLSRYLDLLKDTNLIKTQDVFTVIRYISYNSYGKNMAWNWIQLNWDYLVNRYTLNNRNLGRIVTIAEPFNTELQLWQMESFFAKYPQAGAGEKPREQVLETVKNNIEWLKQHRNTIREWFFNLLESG
Experimental: A CX3CX3CX3C(C, cysteine; X, any amino acid) library was prepared (Rajotte et al., 1998). […] Cells were detached by incubation with 2.5 mM EDTA in PBS, washed once in binding medium (DMEM high glucose supplemented with 20 mM HEPES and 2% FCS), and resuspended in the same medium at a concentration of 2×10^6 cells/ml. 10^10 TU of phage were added to 500 μl of the cell suspension, and the mixture was incubated overnight (first round) or for 2 h (successive rounds) at 4° C. with gentle rotation. Cells were washed five times in binding medium at room temperature and resuspended in 100 μl of the same medium. Phage were rescued by adding 1 ml of exponentially growing K91Kan Escherichia coli bacteria and incubating the mixture for 1 h at room temperature. Bacteria were diluted in 10 ml of LB medium supplemented with 0.2 μg/ml tetracycline and incubated for another 20 min at room temperature. Serial dilutions were plated on LB plates containing 40 μg/ml tetracycline, and plates were incubated at 37° C. overnight before colonies were counted.
The CX3CX3CX3C phage library (10^10 transducing units [TU]) was preadsorbed on parental SK-RC-49 cells to decrease nonspecific binding. […] SK-RC-49/APA-bound phage were amplified and used for two consecutive rounds of selection.

APA (SK-RC-49/APA cells) [3] = target: T1, APA (SK-RC-49/APA cells); experiment: Phage binding specificity assay on SK-RC-49/APA cells; type: cell-based; details: input 10^9 TU, not shown
Experimental: The cell binding assay was performed with an input of 10^9 TU as described for the cell panning. The specificity was confirmed by adding […] (SEQ ID NO:123) peptide to the binding medium in increasing concentrations. For phage binding on immunocaptured APA, wells were blocked for 1 h at room temperature with PBS/3% BSA and incubated with 10^9 TU for 1 h at room temperature in 50 μl PBS/3% BSA. After eight washes in PBS/1% BSA/0.01% Tween-20 and two washes in PBS, phage were rescued by adding 200 μl of exponentially growing K91Kan E. coli. Each experiment was repeated at least three times.

adipose tissue = experiment: Validation of adipose homing phage by in vivo homing; set-up: species or system mouse; details: FIG. 2
Experimental: FIG. 2. Validation of adipose homing peptides. Phage bearing targeting peptides identified in Example 4 were injected into pregnant mice and their recovery from adipose tissue was compared to control fd-tet phage without targeting sequences.
The fat homing clones selected were: FA—KGGRAKD (SEQ ID NO:53), FC—RGEVLWS (SEQ ID NO:54), FE—TREVHRS (SEQ ID NO:47) and FX—VMGSVTG (SEQ ID NO:52).

placenta [4] = experiment: Validation of placenta homing phage: recovery from placenta of pregnant mice; type: in vivo, mouse; details: FIG. 1
Text: FIG. 1. Validation of placenta homing phage. […] The placenta homing phage clones were: […] NO:43). The placenta homing peptides were validated in vivo by injection into pregnant mice and recovery from the placenta. […] The phage clones are identified as: […] NO:43).

mouse placenta = experiment: In vivo biopanning for placenta homing phage with post-clearing (clone frequency per round); details: for frequency of phage clone in round III: round III of in vivo biopanning in pregnant mice; for frequency of phage clone in round IV: post-clearing in non-pregnant mouse
Experimental: Peptides homing to the mouse placenta were identified by a post-clearing protocol using a phage display library. A first round of biopanning was performed on pregnant mice. Samples of placenta were removed and phage rescued according to the standard protocols described above, with one modification. In the typical bipanning protocol, thousands of phage may be recovered from a single organ, tissue or cell type. Typically, between 200 and 300 individual colonies were selected from plated phage and these were amplified and pooled to form the phage display library for the second or third rounds of biopanning. In this example, all phage rescued from the first round of biopanning were amplified in bulk on solid medium and then pooled to form the phage display library for the second round of biopanning. That is, there was no restriction of the rescued phage from the first round of biopanning. This in vivo biopanning without restriction was performed for three rounds (rounds I-III), then a post-clearing procedure was used.
In the post-clearing protocol (round IV), phage were administered to a non-pregnant mouse. Phage that bound to tissues other than placenta were absorbed from the circulation. Remaining phage were recovered from the plasma of the non-pregnant mouse. This protocol was designed to isolate phage that bound to placenta but not to other mouse organs, tissues or cell types. The following placenta targeting peptides were identified, along with their frequencies. A search of the GenBank database disclosed that none of the SEQ ID NO's listed below was 100% homologous with any known peptide sequence.

[5] = FITC conjugates-I, 1 mouse iv (predominantly) or ip ~every other day, day 1-day 18, 9 times, Total 450 μg)
[6] = FITC conjugates-II, 1 mouse sc (predominantly) or iv ~every other day, day 4-day 17, 10 times, Total 1M (~1 mg)

## CARAC-FITC: CARAC peptide (SEQ ID NO:46) attached to FITC, non-placental targeting control (cysteine pairing not given here; also: attached to FITC, site not given here) [reference compound]
Placenta [1]; [5]
  Peptide Effect on Embryo: No effect
  Pregnancy Outcome: 18 d, 5 normal pups
Placenta [1]; [6]
  Peptide Effect on Embryo: Slight toxicity?
  Pregnancy Outcome: 20 d, 5 pups, 1-dead

## CAVACWADCQLGC
APA (SK-RC-49/APA cells) [2]
  Round 2 (%): 5%

## CGTGCAVECEVVC
APA (SK-RC-49/APA cells) [2]
  Round 2 (%): 5%
APA (SK-RC-49/APA cells) [3]
  enrichment of phage binding on SK-RC-49/APA cells relative to SK-RC-49 parental cells: no selective binding

## CSGLCTVQCLEGC
APA (SK-RC-49/APA cells) [2]
  Round 2 (%): 5%

## CSMMCLEGCDDWC
APA (SK-RC-49/APA cells) [2]
  Round 2 (%): 5%

## GST-PA: PA peptide (TPKTSVT) attached to GST (glutathion S-transferase)
Placenta [1]; GST conjugates-I, 1 mouse sc (predominantly) or iv ~every other day, day 4-day 17, 10 times, Total 800 μg
  Peptide Effect on Embryo: Pregnancy termination

## KGGRAKD [fat-targeting peptide, fat homing phage clone FA]
Adipose tissue
  homing to adipose tissue compared to control fd-tet phage: some elevation of homing to adipose tissue

## LGLRSVG [placenta targeting peptide, phage clone PE]
Placenta [4]
  placental homing of phage compared to control fd-tet phage: not substantially enriched in placenta
Mouse placenta
  frequency of phage clone in round III: < 1%
  frequency of phage clone in round IV: 5.3%

## PA-FITC: placenta homer PA peptide (TPKTSVT) attached to FITC (fluorescein isothiocyanate) (also: FITC conjugate, site not given here)
Placenta [1]; [5]
  Peptide Effect on Embryo: No effect
  Pregnancy Outcome: 19 d, 8 normal pups
Placenta [1]; [6]
  Peptide Effect on Embryo: Pregnancy termination
  Pregnancy Outcome: No fetuses inside

## PF-FITC: placenta homer PF peptide (YIRPFTL) attached to FITC (also: FITC conjugate, site not given here)
Placenta [1]; [5]
  Peptide Effect on Embryo: Development delay,; also recorded: toxicity
  Pregnancy Outcome: 21 d, 1 dead pup
Placenta [1]; [6]
  Peptide Effect on Embryo: Pregnancy termination
  Pregnancy Outcome: No fetuses inside

## RAPGGVR [placenta targeting peptide, phage clone PC]
Placenta [4]
  placental homing of phage compared to control fd-tet phage: substantially higher placental localization
Mouse placenta
  frequency of phage clone in round III: < 1%
  frequency of phage clone in round IV: 8.5%

## RGEVLWS [fat-targeting peptide, fat homing phage clone FC]
Adipose tissue
  homing to adipose tissue compared to control fd-tet phage: some elevation of homing to adipose tissue

## RMDGPVR [placenta targeting peptide]
Mouse placenta
  frequency of phage clone in round III: 3.1%
  frequency of phage clone in round IV: 8.5%

## TPKTSVT
Placenta [4]
  placental homing of phage compared to control fd-tet phage: more than an order of magnitude greater
Mouse placenta
  frequency of phage clone in round III: 7.4%
  frequency of phage clone in round IV: 8.5%

## TPKTSVT: placenta targeting peptide, tested displayed on phage clone PA
Placenta [1]
  effect on pregnancy: slight effect on pregnancy
  effect on fetal development: substantially interfered with fetal development

## TREVHRS [adipose targeting peptide, fat homing phage clone FE]
Adipose tissue
  homing to adipose tissue compared to control fd-tet phage: some elevation of homing to adipose tissue

## VGLHARA [placenta targeting peptide]
Mouse placenta
  frequency of phage clone in round III: 4.2%
  frequency of phage clone in round IV: 7.4%

## VMGSVTG [fat-targeting peptide, fat homing phage clone FX]
Adipose tissue
  homing to adipose tissue compared to control fd-tet phage: several orders of magnitude higher adipose localization

## YIRPFTL [placenta targeting peptide, phage clone PF]
Placenta [4]
  placental homing of phage compared to control fd-tet phage: not substantially enriched in placenta
Mouse placenta
  frequency of phage clone in round III: 2.1%
  frequency of phage clone in round IV: 5.3%

## YIRPFTL: placenta targeting peptide, phage clone PF
Placenta [1]
  effect on pregnancy: slight effect on pregnancy
  effect on fetal development: substantially interfered with fetal development
